From US20050288187A1, “Inhibitor development for 4-hydroxyphenylpyruvate dioxygenase, employing tyrosinemia 1 as a model for human diseases mediated by 2-oxoacid utilizing dioxygenases” (priority 2002, published 2005)

Columns and labels:
[1] = test system: prolyl 4-hydroxylase; conditions: U.S. Pat. Nos. 5,789,426; 5,965,585; 5,965,586; cited from earlier work
[2] = test system: P4-H; conditions: one other tyrosinemic child (Pitkanen et al. 1999); cited from earlier work
[3] = test system: laminin P1 antigen; assay: Control biomarker P1 antigen of laminin (P4-H independent) during NTBC treatment; assay type: in vivo, human; conditions: P4-H independent protein
Description: Inherit Metab. […] Res. 39:[…]

[4] = test system: P4-H; assay: Collagen-derived serum biomarkers (PIIINP, NC1, NTD) for P4-H activity in a tyrosinemia I patient during NTBC treatment; assay type: in vivo, human
Description: A total of ten biomarkers were monitored from just before initiation of NTBC medication to up to 103 days of treatment, generating a total of 60 data points. […] P4-H activity was assessed via specific antigens released from three different groups of collagens, all of which are substrates for this enzyme. These biomarkers, quantified by specific radioimmunoassay, consisted of PIIINP, an indicator for the fibril-forming collagen type III; NC1, a marker for the sheet-forming collagen type IV; and NTD, an indicator for the beaded filament-forming collagen type VI. The P1 antigen, derived from the non-collagenous protein laminin and thus not dependent on P4-H activity, served as control.

| SMILES | inhibition of prolyl 4-hydroxylase [1] | initially elevated PIIINP level, response to treatment with NTBC [2] | laminin P1 antigen, response to NTBC treatment [3] | NCI (collagen type IV biomarker) rise over initial value ([4]; after 103 days on NTBC) | NTC (collagen type VI biomarker) rise over initial value ([4]; after 103 days on NTBC) | biomarkers for P4-H activity (PIIINP, NC1, NTD), response to NTBC ([4]; three months study period) |
| --- | --- | --- | --- | --- | --- | --- |
| Cc1c(O)c(=O)ccn1C [DMHP, 1,2-dimethyl-3-hydroxypyrid-4-one] | known inhibitors of prolyl 4-hydroxylase |  |  |  |  |  |
| O=C1CCCC(=O)C1C(=O)c1ccc(C(F)(F)F)cc1[N+](=O)[O-] [NTBC, 2-(2-nitro-4-trifluoromethylbenzoyl)-cyclohexane-1,3-dione] |  | non-responsive | unresponsive | 1.1 factor | 1.1 factor | entirely unresponsive |
